From paper PMC10037152 (Plant Biotechnology Journal, 2023)

Tests used:
[1] = biological target: 3CL^pro of SARS-CoV-2 (Severe acute respiratory syndrome coronavirus 2, UniProt P0DTD1); assay: Inhibition activity against 3CLpro by fluorescence resonance energy transfer; type: biochemical; conditions: read-out: IC50 against 3CL^pro; n = 3
[2] = biological target: PL^pro of SARS-CoV-2 (Severe acute respiratory syndrome coronavirus 2, UniProt P0DTD1); assay: Inhibition activity against PLpro by fluorescence resonance energy transfer; type: biochemical; conditions: read-out: IC50 against PL^pro; n = 3

`CC1(C)CC[C@]2(C(=O)O)CC[C@]3(C)C(=CC[C@@H]4[C@@]5(C)CC[C@H](O[C@@H]6O[C@H](CO)[C@@H](O)[C@H](O)[C@H]6O)C(C)(C)C5CC[C@]43C)[C@H]2C1` (some centres unmarked) [Compound 34, oleanolic acid‐3‐O‐glucoside] was tested, and the IC50 [1] was 5.95 µM and the IC50 [2] was 7.57 µM.
